According to patent US7739055B2, “Methods and systems for generating and evaluating peptides” (priority 2005, dated 2010):
Values after ≈ are worked out from the molar mass of the structure shown. Read-outs that look alike come from different tables or passages of the source. Where a SMILES comes first, the peptide text is derived from it.

How the values were obtained:
[1] = first concentration that prohibits growth by OD at 24 hours, Table 1

Row | Compound | MIC E. coli (Escherichia coli; [1]) | MIC E. coli (Escherichia coli; 24 h) [µg/mL] | MIC B. cereus (B. cereus; [1]) | MIC B. cereus (B. cereus; 24 h) [µg/mL] | MIC B. cereus (B. cereus)
1 | CC[C@H](C)[C@H](NC(=O)[C@@H](NC(=O)[C@H](CCCCN)NC(=O)[C@H](C)NC(=O)[C@H](CC(C)C)NC(=O)[C@H](CCCCN)NC(=O)[C@H](CCCCN)NC(=O)CN)[C@@H](C)O)C(=O)N[C@@H](C)C(=O)N[C@@H](CCCCN)C(=O)N[C@@H](CCC(=O)O)C(=O)N[C@H](C(=O)N[C@@H](C)C(=O)N[C@@H](CCCCN)C(=O)N[C@@H](CCC(N)=O)C(=O)NCC(=O)N[C@@H](C)C(=O)N[C@@H](CCCCN)C(=O)N[C@@H](Cc1ccccc1)C(=O)N[C@@H](C)C(=O)O)C(C)C [Peptide 77] (H-GKKLAKTIAKEVAKQGAKFA-OH) | 64 µg/mL (≈ 30.7 µM) |  |  |  | + (key: +: MIC greater than 256 ug/mL; ++: MIC greater than 128 ug/mL, not sufficiently soluble to test as 256 ug/mL)
2 | AATGTGKTAAFALPVLERLI [Peptide 38] | + (MIC greater than 256 ug/mL) |  | + (MIC greater than 256 ug/mL) |  | 
3 | ALFSLASKVVPSVFSMVTKK [Peptide 1] | + (MIC greater than 256 ug/mL) |  | + (MIC greater than 256 ug/mL) |  | 
4 | FKVVISKPGLSVRVGTALVT [Shuffled 65] | ++ (MIC greater than 128 ug/mL, not sufficiently soluble to test as 256 ug/mL) |  | ++ (MIC greater than 128 ug/mL, not sufficiently soluble to test as 256 ug/mL) |  | 
5 | FLPFVGRIASKVVPSVIGKV [Peptide 75] | + (MIC greater than 256 ug/mL) |  | + (MIC greater than 256 ug/mL) |  | 
6 | GVVGKLASKVVPSVFGSFTK [Peptide 34] | + (MIC greater than 256 ug/mL) |  | + (MIC greater than 256 ug/mL) |  | 
7 | KFDPLEGAPMARGIVLEKVG [Peptide 74] | + (MIC greater than 256 ug/mL) |  | + (MIC greater than 256 ug/mL) |  | 
8 | KGRGKQGGKVRAKAKTRSS [Parasin] | + (MIC greater than 256 ug/mL) |  | + (MIC greater than 256 ug/mL) |  | 
9 | KIVKVITVKSISPASLVPVF [Shuffled 83] | ++ (MIC greater than 128 ug/mL, not sufficiently soluble to test as 256 ug/mL) |  | ++ (MIC greater than 128 ug/mL, not sufficiently soluble to test as 256 ug/mL) |  | 
10 | LGVVGSLASKVVPAVISKVK [Peptide 57] | + (MIC greater than 256 ug/mL) |  | + (MIC greater than 256 ug/mL) |  | 
11 | LPAVFKLASKVVPSVFGLVK [Peptide 42] | + (MIC greater than 256 ug/mL) |  | + (MIC greater than 256 ug/mL) |  | 
12 | LSAVGKIASKVVPSVIGAFK [Peptide 6] | + (MIC greater than 256 ug/mL) |  | + (MIC greater than 256 ug/mL) |  | 
13 | MKSIAKFIAKTVAKQGAKQG [Peptide 39] | + (MIC greater than 256 ug/mL) |  |  |  | + (key: +: MIC greater than 256 ug/mL; ++: MIC greater than 128 ug/mL, not sufficiently soluble to test as 256 ug/mL)
14 | PSLLYKAKAVFCKPSAVAVF [Shuffled 62] | ++ (MIC greater than 128 ug/mL, not sufficiently soluble to test as 256 ug/mL) |  | ++ (MIC greater than 128 ug/mL, not sufficiently soluble to test as 256 ug/mL) |  | 
15 | PVIGKLASKVVPSVFSMIKR [Peptide 7] | + (MIC greater than 256 ug/mL) |  | + (MIC greater than 256 ug/mL) |  | 
16 | PVVFSVASKVVPSLISALKR [Peptide 25] | + (MIC greater than 256 ug/mL) |  |  |  | + (key: +: MIC greater than 256 ug/mL; ++: MIC greater than 128 ug/mL, not sufficiently soluble to test as 256 ug/mL)
17 | PVVGRVASKVFPAVIGLVKK [Peptide 45] | + (MIC greater than 256 ug/mL) |  | + (MIC greater than 256 ug/mL) |  | 
18 | PYSLKNGENWLLSEEIIRYP [Peptide 50] | + (MIC greater than 256 ug/mL) |  | + (MIC greater than 256 ug/mL) |  | 
19 | RKRKSDVDFEAEFELFEDDD [Peptide 19] | + (MIC greater than 256 ug/mL) |  | + (MIC greater than 256 ug/mL) |  | 
20 | SALGRLASKVVPAVIGKVTT [Peptide 56] | + (MIC greater than 256 ug/mL) |  | + (MIC greater than 256 ug/mL) |  | 
21 | SALGRVASKVFPAVYCSITK [Peptide 15] | + (MIC greater than 256 ug/mL) |  | + (MIC greater than 256 ug/mL) |  | 
22 | SAVGKLASKVFPAVFSMVTK [Peptide 31] | + (MIC greater than 256 ug/mL) |  | + (MIC greater than 256 ug/mL) |  | 
23 | SAVGSVASKVVPSLISKVTK [Peptide 36] | + (MIC greater than 256 ug/mL) |  | + (MIC greater than 256 ug/mL) |  | 

Continued, in another order:

Row | MIC E. coli (Escherichia coli; [1]) | MIC E. coli (Escherichia coli; 24 h) [µg/mL] | MIC B. cereus (B. cereus; [1]) | MIC B. cereus (B. cereus; 24 h) [µg/mL] | Compound | MIC B. cereus (B. cereus)
24 |  | 256 (≈ 116 µM) | + (MIC greater than 256 ug/mL) |  | CC[C@H](C)[C@H](NC(=O)[C@@H](NC(=O)[C@H](CS)NC(=O)[C@H](Cc1ccc(O)cc1)NC(=O)[C@@H](NC(=O)[C@H](CO)NC(=O)[C@@H]1CCCN1C(=O)[C@@H](NC(=O)[C@@H](NC(=O)[C@H](CCCCN)NC(=O)[C@H](CO)NC(=O)[C@H](C)NC(=O)[C@H](CC(C)C)NC(=O)[C@H](CCCCN)NC(=O)[C@H](Cc1ccccc1)NC(=O)[C@@H](NC(=O)[C@@H](N)C(C)C)C(C)C)C(C)C)C(C)C)C(C)C)[C@@H](C)O)C(=O)N[C@H](C(=O)N[C@@H](CCCCN)C(=O)N[C@@H](CCCCN)C(=O)O)[C@@H](C)O [Peptide 88] (H-VVFKLASKVVPSVYCTITKK-OH; N-terminus and C-terminus assumed) | 
25 | + (MIC greater than 256 ug/mL) |  |  | 256 (≈ 127 µM) | CC[C@H](C)[C@H](NC(=O)[C@H](CC(C)C)NC(=O)CNC(=O)[C@@H](NC(=O)[C@@H](NC(=O)[C@H](C)NC(=O)[C@@H]1CCCN1C(=O)[C@@H](NC(=O)[C@@H](NC(=O)[C@H](CCCCN)NC(=O)[C@H](CO)NC(=O)[C@H](C)NC(=O)[C@H](CC(C)C)NC(=O)[C@H](CO)NC(=O)[C@H](Cc1ccccc1)NC(=O)[C@H](CC(C)C)NC(=O)[C@H](C)NC(=O)CN)C(C)C)C(C)C)C(C)C)[C@@H](C)CC)C(=O)N[C@@H](CCCCN)C(=O)N[C@@H](CCCCN)C(=O)O [Peptide 96] (H-GALFSLASKVVPAVIGLIKK-OH; N-terminus and C-terminus assumed) | 
26 |  | 64 (≈ 30.4 µM) |  | 32 (≈ 15.2 µM) | CC[C@H](C)[C@H](NC(=O)[C@H](CCSC)NC(=O)[C@H](C)NC(=O)[C@@H]1CCCN1C(=O)[C@@H](NC(=O)[C@@H](NC(=O)[C@H](CCCCN)NC(=O)[C@@H](NC(=O)[C@H](CC(C)C)NC(=O)CNC(=O)CNC(=O)[C@H](CC(C)C)NC(=O)[C@@H](N)Cc1ccccc1)[C@@H](C)CC)[C@@H](C)CC)C(C)C)C(=O)N[C@@H](CS)C(=O)N[C@@H](C)C(=O)N[C@H](C(=O)N[C@H](C(=O)N[C@@H](CCCCN)C(=O)N[C@@H](CCCCN)C(=O)N[C@@H](CS)C(=O)O)[C@@H](C)O)C(C)C [Ranalexin] (H-FLGGLIKIVPAMICAVTKKC-OH; N-terminus and C-terminus assumed) | 
27 | + (MIC greater than 256 ug/mL) |  | + (MIC greater than 256 ug/mL) |  | AKKAQKSGAQTIVKIFAKGM [Shuffled 39] | 
28 | + (MIC greater than 256 ug/mL) |  | + (MIC greater than 256 ug/mL) |  | ALVYAGIKKTAFLKVQKCDG [Shuffled 33] | 
29 | + (MIC greater than 256 ug/mL) |  | + (MIC greater than 256 ug/mL) |  | FMKVLAVFGSVVTSAPKASK [Shuffled 31] | 
30 | + (MIC greater than 256 ug/mL) |  | + (MIC greater than 256 ug/mL) |  | FVGGVASKVVPSVYCKVSKK [Peptide 85] | 
31 | + (MIC greater than 256 ug/mL) |  | + (MIC greater than 256 ug/mL) |  | FVGSLASKVVPSVFGAIKTK [Peptide 82] | 
32 | + (MIC greater than 256 ug/mL) |  | + (MIC greater than 256 ug/mL) |  | GAVFGVASKVVPSVFSAIKK [Peptide 84] | 
33 | + (MIC greater than 256 ug/mL) |  | + (MIC greater than 256 ug/mL) |  | GLKKDALQSIVKKAQLAAMG [Shuffled 9] | 
34 | + (MIC greater than 256 ug/mL) |  | + (MIC greater than 256 ug/mL) |  | GVSSPIVAVKFKGAVASLIK [Shuffled 6] | 
35 | + (MIC greater than 256 ug/mL) |  | + (MIC greater than 256 ug/mL) |  | HTGRSGPATGHSGHSSTHGS [Peptide 86] | 
36 | + (MIC greater than 256 ug/mL) |  | + (MIC greater than 256 ug/mL) |  | IASAVPVCVKGKISKSYISV [Shuffled 44] | 
37 | + (MIC greater than 256 ug/mL) |  | + (MIC greater than 256 ug/mL) |  | KSPFVLVVSSRVAAVIKSLP [Shuffled 25] | 
38 | + (MIC greater than 256 ug/mL) |  | + (MIC greater than 256 ug/mL) |  | KTVPVVLKASIKVSSAGFGF [Shuffled 82] | 
39 | + (MIC greater than 256 ug/mL) |  | + (MIC greater than 256 ug/mL) |  | KVGKGSYPCSFVKVVAKVSV [Shuffled 85] | 
40 | + (MIC greater than 256 ug/mL) |  | + (MIC greater than 256 ug/mL) |  | KVYVVKIAVPCFPKSARSVS [Shuffled 29] | 
41 | + (MIC greater than 256 ug/mL) |  | + (MIC greater than 256 ug/mL) |  | KYGPALVIAVKKSCSLTFRA [Shuffled 23] | 
42 | + (MIC greater than 256 ug/mL) |  | + (MIC greater than 256 ug/mL) |  | LPVLFSSAIAKVGIKLGAKV [Shuffled 96] | 
43 | + (MIC greater than 256 ug/mL) |  | + (MIC greater than 256 ug/mL) |  | LPVVFKIASKVVPSVISKIT [Peptide 83] | 
44 | + (MIC greater than 256 ug/mL) |  | + (MIC greater than 256 ug/mL) |  | LYSPTCVKAAVSRFIGKVSA [Shuffled 15] | 
45 | + (MIC greater than 256 ug/mL) |  | + (MIC greater than 256 ug/mL) |  | MVVFSVPKFKSTVAKLLSSA [Shuffled 1] | 
46 | + (MIC greater than 256 ug/mL) |  | + (MIC greater than 256 ug/mL) |  | PKVVGLSIVVVKAKVSSALG [Shuffled 57] | 
47 | + (MIC greater than 256 ug/mL) |  | + (MIC greater than 256 ug/mL) |  | SKFPLAGIFSVPGVKRVVVI [Shuffled 75] | 
48 | + (MIC greater than 256 ug/mL) |  | + (MIC greater than 256 ug/mL) |  | SRVPLKSPVKIVGSKVMIFA [Shuffled 7] | 
